Reference: paper PMC8836076, “A Fungal Versatile GH10 Endoxylanase and Its Glycosynthase Variant: Synthesis of Xylooligosaccharides and Glycosides of Bioactive Phenolic Compounds” (International Journal of Molecular Sciences, 2022)

Molecular target: T1, rXynSOS (Talaromyces amestolkiae, UniProt A0A364LCP8, E255G)
T1 construct: gene BHQ10_009513; mature protein (389 aa, GH10 domain + C-terminal CBM1), 19-aa signal peptide removed, pPIC9 in Pichia pastoris GS115, no tag, starts QLNTAAK (from primer), glycosylated, 53 kDa monomer
T1 sequence (A0A364LCP8 entry or part of it E255G): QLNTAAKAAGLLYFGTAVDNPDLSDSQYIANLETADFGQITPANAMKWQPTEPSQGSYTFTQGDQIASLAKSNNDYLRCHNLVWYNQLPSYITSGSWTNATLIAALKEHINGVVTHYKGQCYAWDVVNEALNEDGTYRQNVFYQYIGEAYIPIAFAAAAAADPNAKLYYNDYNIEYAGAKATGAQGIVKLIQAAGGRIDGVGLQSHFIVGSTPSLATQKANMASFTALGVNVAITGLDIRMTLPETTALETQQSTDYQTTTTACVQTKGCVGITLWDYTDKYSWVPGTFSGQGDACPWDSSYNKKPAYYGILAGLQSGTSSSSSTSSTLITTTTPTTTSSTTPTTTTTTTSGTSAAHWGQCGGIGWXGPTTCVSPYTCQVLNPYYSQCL
Test: ESI-MS and NMR of xylooligosaccharide synthesis
Type: biochemical
Details: glycosynthase; 20 mM X2F as only reactant (donor and acceptor), 50 mM sodium acetate pH 5, 25 °C, 16 h

SMILES: O[C@@H]1[C@@H](O)[C@H](O[C@@H]2CO[C@H](F)[C@H](O)[C@H]2O)OC[C@H]1O [X2F, xylobiose-fluoride]
- ESI-MS and NMR of xylooligosaccharide synthesis: reaction with X2F as the only reactant molecule (no acceptor was added)
